Experiments:
[1] = tested on: α-SMA-positive myofibroblasts; assay: Alkali burn model: IHC α-SMA-positive stromal area and intensity (ImageJ); format: in vivo, rabbit; settings: topical six times per day, one month
Procedure: (§1) Alkali injuries were produced in one eye of rabbits with previously published methods^10 using 1N sodium hydroxide (Sigma, St. Louis, MO) in balanced salt solution (BSS, 0.64% sodium chloride, 0.075% potassium chloride, 0.048% calcium chloride dihydrate, […] magnesium chloride hexahydrate, 0.39% sodium acetate trihydrate, 0.17% sodium citrate dihydrate, pH 7.5, Alcon, H. Worth, TX) and a 5 mm diameter circular Whatman No. 1 filter paper (Cat #1001-6508, Fisher Scientific) wetted with 100 μl of 1N NaOH solution. Following the alkali burn injury, the cornea was irrigated profusely with BSS. Each injured cornea also received one drop of ciprofloxacin (Alcon, Ft. Worth, TX, USA) ten minutes after surgery and four times a day for one week and at least 15 minutes apart from the study medications.
Worth TX), at least 5 minutes apart, or 4) 50 μl of BSS. […]
The area of the α-SMA-positive stroma in mm^2 and the total α-SMA opacity in pixels were quantitated using standardized images obtained with a 10× objective on a Leica DM6B upright microscope equipped with an automated stage and Leica 7000 T camera using the LAS X software (Leica Microsystems, GmbH, Wetzlar, Germany). The means of three central corneal sections were analyzed from each cornea to provide the area of α-SMA-positive stroma and the total α-SMA opacity. The area of α-SMA-positive stroma in mm^2 for each cornea was determined from full diameter and thickness central corneal section images (all converted to 300 DPI, 885 width×500 height, files with identical +50% brightness increase in Photoshop for all images) with the ImageJ 1.53a analysis software using the freehand selection tool to delineate the area(s) of α-SMA-positive staining. […] In these same sections for each cornea, the total α-SMA-positive intensity in pixels was also determined with ImageJ, similarly by using the summation if separate α-SMA-positive areas were present. […]

[2] = tested on: corneal neovascularization (CNV); assay: Alkali burn model: central corneal neovascularization (corneal angiography); format: in vivo, rabbit; settings: four corneas in each group, topical six times per day, one month
Procedure: as §1
Worth TX), at least 5 minutes apart, or 4) 50 μl of BSS.
All corneas had fluorescent angiography at the peak of dye passage in the cornea immediately after injection of 1.5 ml of 10% sodium fluorescein (McKesson, Irvine, TX) in the central ear vein with the slit lamp system and digital camera system using a “barrier filter” that only transmitted 520-530 nm, the peak of fluorescein emission, with broad illumination of the cornea, as previously described.^11

[3] = tested on: rabbit corneas after alkali burn injury; assay: Alkali burn model: slit lamp opacity area and intensity (ImageJ); format: in vivo; settings: alkali burn 1N NaOH; topical six times per day, one month; 0.8 mg/ml losartan, 1% prednisolone acetate
Procedure: All animal treatments and care were approved by the Institutional Animal Care and Use Committee (IACUC) at the Cleveland Clinic Foundation (Cleveland, OH, USA) and the Animal Care and Use Review Office of the Department of the Army (Fort Detrick, MD). All rabbits were treated in accordance with the tenets of the ARVO Statement for the Use of Animals in Ophthalmic and Vision Research. Sixteen 10- to 15-week-old female New Zealand White rabbits weighing 2.5 to 3.0 kg each were included in this example. […]
At one month after sodium hydroxide exposure and treatments, with the rabbits under ketamine-xylazine general anesthesia, the eyes were dilated with two drops of 1% tropicamide (Akom Co., Lake Forest, IL) for thirty minutes. […] For each study eye, the total area of opacity was determined by outlining the opacity with the freehand selection tool using ImageJ 1.53a analysis software calibrated to mm^2. The “raw internal density” in pixels for the opacified area in each cornea was also determined using ImageJ. […]

collagen type IV = assay: Alkali burn model: IHC collagen type IV intensity in anterior and posterior stroma (ImageJ); format: in vivo, rabbit; settings: one month
Procedure: Worth, TX) and a 5 mm diameter circular Whatman No. 1 filter paper (Cat #1001-6508, Fisher Scientific) wetted with 100 μl of 1N NaOH solution. Following the alkali burn injury, the cornea was irrigated profusely with BSS. Each injured cornea also received one drop of ciprofloxacin (Alcon, Ft. Worth, TX, USA) ten minutes after surgery and four times a day for one week and at least 15 minutes apart from the study medications. […] Worth TX), at least 5 minutes apart, or 4) 50 μl of BSS. Multiplex immunohistochemistry (IHC) was performed using previously described methods^8 and primary antibodies (Table 7) confirmed by western blotting and IHC to recognize rabbit antigens or isotypic control antibodies (Thermo Fisher Scientific, Waltham, MA), and secondary fluorescent tagged antibodies (Table 7). The collagen type IV antibody (Cat. #AB769, Millipore, Temecula CA) was raised against purified human and bovine collagen type IV that had been affinity purified with human and bovine collagen type IV crosslinked to agarose and cross-absorbed by the manufacturer with human and bovine collagens type I, II, III, V and VI to eliminate cross-reactivity. This collagen type IV antibody was shown previously to bind rabbit collagen IV in IHC,^8,9 and recognizes the alpha-1/alpha-2 chains but not the alpha-3 to alpha-6 chains. The keratocan antibody is raised against peptide […]-OH (SEQ ID NO:1). This marker was used to identify keratocytes in situ. […] All corneas in each group had IHC for collagen type IV. Images from each cornea were converted to uniform 300 DPI, 875×568 pixel, files. […] The staining intensity within each box was determined with the analyze histogram function and the mean of three boxes was the intensity value in the anterior or posterior stroma for that cornea.

CC(=O)OCC(=O)[C@@]1(O)CC[C@H]2[C@@H]3CCC4=CC(=O)C=C[C@]4(C)[C@H]3[C@@H](O)C[C@@]21C [Prednisolone acetate, prednisolone acetate]
localization of α-SMA-positive myofibroblasts in the stroma [1]: more variable
corneas in which central corneal neovascularization developed [2]: one
total opacity intensity in pixels (ImageJ) vs BSS vehicle group [3]: did not reach statistical significance
mean intensity units of collagen type IV in the anterior stroma compared to vehicle treatment (collagen type IV): trend towards a decrease

Source: patent US20240350402A1, “TOPICAL DRUG TREATMENT TO PREVENT OR REDUCE CORNEAL SCARRING” (The Cleveland Clinic Foundation, priority 2021, published 2024)
